These results are taken from ChEMBL document CHEMBL1145159 (J Med Chem, 2005).

As usually defined, the IC50 is the point on the concentration scale where inhibition reaches its midpoint. Lower therefore signals higher potency.

Assay [1] in a line: Inhibitory concentration against Nicotinic acetylcholine receptor alpha-6-alpha-3-beta-2; Range is 0.3-1.5 nM. Also on record: species or system Homo sapiens.
A short description of assay [2]: Inhibitory concentration against Nicotinic acetylcholine receptor alpha 6/alpha-3-beta-4; Range is 0.3-1.5 nM. Also on record: species or system Homo sapiens.
For assay [3], the target named is T1, Neuronal acetylcholine receptor; alpha3/beta4 (Homo sapiens, UniProt P30926+P32297). Kind of assay: Inhibitory concentration against Nicotinic acetylcholine receptor alpha3-beta4; Range is 0.7-1 nM. It counts as protein-complex assay.
T1 sequence (P30926 whole entry): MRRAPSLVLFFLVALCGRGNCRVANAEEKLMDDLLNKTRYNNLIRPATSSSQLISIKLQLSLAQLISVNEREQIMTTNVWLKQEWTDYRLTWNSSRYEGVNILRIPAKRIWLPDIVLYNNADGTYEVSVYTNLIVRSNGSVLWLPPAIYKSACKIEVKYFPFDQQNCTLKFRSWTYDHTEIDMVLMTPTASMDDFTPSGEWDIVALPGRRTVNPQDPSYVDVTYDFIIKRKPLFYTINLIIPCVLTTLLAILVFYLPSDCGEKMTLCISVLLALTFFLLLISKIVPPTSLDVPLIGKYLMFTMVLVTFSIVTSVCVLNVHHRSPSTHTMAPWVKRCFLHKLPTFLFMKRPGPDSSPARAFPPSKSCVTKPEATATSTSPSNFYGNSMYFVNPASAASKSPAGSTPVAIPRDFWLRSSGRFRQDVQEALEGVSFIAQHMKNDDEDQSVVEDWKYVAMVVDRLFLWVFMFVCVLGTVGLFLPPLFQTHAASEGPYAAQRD
T1 sequence (P32297 whole entry): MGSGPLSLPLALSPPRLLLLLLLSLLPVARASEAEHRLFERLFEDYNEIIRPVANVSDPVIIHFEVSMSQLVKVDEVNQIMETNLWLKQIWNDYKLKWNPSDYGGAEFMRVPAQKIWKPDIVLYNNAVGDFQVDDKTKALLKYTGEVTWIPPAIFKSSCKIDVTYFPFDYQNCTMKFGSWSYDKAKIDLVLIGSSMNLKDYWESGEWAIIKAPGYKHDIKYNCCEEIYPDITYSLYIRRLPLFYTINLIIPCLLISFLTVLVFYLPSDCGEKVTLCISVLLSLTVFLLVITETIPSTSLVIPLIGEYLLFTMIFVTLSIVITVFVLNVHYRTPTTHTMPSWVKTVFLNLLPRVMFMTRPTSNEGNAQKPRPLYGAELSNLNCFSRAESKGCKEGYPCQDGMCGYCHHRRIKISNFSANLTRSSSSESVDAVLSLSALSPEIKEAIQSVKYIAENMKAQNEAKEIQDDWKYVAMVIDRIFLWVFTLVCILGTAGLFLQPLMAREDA
For assay [4], the target named is Neuronal acetylcholine receptor; alpha3/alpha6/beta2/beta3 (Homo sapiens, UniProt P17787+P32297+Q05901+Q15825). The experiment in a line: Inhibitory concentration against Nicotinic acetylcholine receptor alpha-6-alpha-3-beta-2-beta-3; Range is 0.7-1 nM. In kind it is protein-complex assay.
Assay [5] concerns the target T1, Neuronal acetylcholine receptor; alpha3/beta4. The experiment in a line: Inhibitory concentration against Nicotinic acetylcholine receptor alpha3-beta4; Range is 100-200 nM. In kind it is protein-complex assay.
For assay [6], the target named is Neuronal acetylcholine receptor subunit alpha-9 (Homo sapiens, UniProt Q9UGM1). Kind of assay: Inhibitory concentration against Nicotinic acetylcholine receptor alpha9; Range is 100-200 nM.
The target of assay [7] is T2, Neuronal acetylcholine receptor subunit alpha-7 (Homo sapiens, UniProt P36544). The experiment in a line: Inhibitory concentration against Nicotinic acetylcholine receptor alpha7; Range is 100-200 nM.
T2 sequence (P36544 whole entry): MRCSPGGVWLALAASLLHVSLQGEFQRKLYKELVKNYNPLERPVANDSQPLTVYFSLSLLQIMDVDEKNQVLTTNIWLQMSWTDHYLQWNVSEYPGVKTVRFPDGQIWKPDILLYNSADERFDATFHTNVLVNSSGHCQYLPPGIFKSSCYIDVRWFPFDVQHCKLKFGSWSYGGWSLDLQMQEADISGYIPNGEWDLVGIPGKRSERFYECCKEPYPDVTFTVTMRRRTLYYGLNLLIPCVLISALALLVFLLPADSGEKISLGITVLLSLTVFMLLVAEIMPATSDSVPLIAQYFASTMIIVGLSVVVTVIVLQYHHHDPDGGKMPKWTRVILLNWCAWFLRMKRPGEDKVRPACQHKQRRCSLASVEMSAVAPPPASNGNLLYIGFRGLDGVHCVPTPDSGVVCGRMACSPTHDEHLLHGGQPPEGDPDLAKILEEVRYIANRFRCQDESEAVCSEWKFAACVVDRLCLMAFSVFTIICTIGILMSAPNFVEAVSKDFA
Assay [8] has as its target T3, Neuronal acetylcholine receptor; alpha2/beta2 (Homo sapiens, UniProt P17787+Q15822). The experiment in a line: Inhibitory concentration against Nicotinic acetylcholine receptor alpha2-beta2; Range is 0.3-1.5 nM. In kind it is protein-complex assay.
The target in assay [9] is T4, Neuronal acetylcholine receptor; alpha4/beta2 (Homo sapiens, UniProt P17787+P43681). The experiment in a line: Inhibitory concentration against Nicotinic acetylcholine receptor alpha4-beta2; Range is 0.3-1.5 nM. In kind it is protein-complex assay.
T4 sequence (P17787 whole entry): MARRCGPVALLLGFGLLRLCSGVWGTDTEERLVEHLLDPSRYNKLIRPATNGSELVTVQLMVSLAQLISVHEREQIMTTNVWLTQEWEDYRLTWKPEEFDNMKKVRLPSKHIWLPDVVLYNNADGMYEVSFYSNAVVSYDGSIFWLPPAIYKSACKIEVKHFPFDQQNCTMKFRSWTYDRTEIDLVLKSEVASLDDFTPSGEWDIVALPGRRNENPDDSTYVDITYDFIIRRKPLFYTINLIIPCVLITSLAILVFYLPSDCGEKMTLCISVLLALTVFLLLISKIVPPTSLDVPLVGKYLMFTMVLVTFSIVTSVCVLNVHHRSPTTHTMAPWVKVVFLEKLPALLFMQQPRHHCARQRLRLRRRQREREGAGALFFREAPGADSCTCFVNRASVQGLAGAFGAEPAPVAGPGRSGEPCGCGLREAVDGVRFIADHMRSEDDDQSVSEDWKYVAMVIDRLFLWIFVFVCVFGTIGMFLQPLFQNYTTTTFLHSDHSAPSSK
T4 sequence (P43681 whole entry): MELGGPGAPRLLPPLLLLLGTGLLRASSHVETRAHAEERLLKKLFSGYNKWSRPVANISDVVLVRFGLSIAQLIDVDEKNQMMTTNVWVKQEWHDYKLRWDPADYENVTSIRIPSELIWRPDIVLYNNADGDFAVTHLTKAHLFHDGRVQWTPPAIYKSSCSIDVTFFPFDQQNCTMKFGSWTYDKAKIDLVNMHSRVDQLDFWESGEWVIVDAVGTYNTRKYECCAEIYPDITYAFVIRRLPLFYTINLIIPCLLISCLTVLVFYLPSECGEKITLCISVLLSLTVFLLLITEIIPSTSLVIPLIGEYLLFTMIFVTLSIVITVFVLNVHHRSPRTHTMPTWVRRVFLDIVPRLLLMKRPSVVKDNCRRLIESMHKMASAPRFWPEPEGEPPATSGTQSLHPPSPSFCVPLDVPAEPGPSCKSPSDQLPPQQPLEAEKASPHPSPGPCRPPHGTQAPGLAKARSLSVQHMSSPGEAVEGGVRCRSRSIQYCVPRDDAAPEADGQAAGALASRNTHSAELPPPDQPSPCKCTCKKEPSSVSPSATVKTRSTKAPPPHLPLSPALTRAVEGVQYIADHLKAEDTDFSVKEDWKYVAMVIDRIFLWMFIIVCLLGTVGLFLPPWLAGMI
Assay [10] deals with Neuronal acetylcholine receptor; alpha2/beta4 (Homo sapiens, UniProt P30926+Q15822). Kind of assay: Inhibitory concentration against Nicotinic acetylcholine receptor alpha2-beta4; Range is 0.3-1.5 nM. It counts as protein-complex assay.
In assay [11] the target is T5, Neuronal acetylcholine receptor; alpha3/beta2 (Homo sapiens, UniProt P17787+P32297). Kind of assay: Inhibitory concentration against Nicotinic acetylcholine receptor alpha3-beta2; Range is 0.3-1.5 nM. It counts as protein-complex assay.
T5 sequence (P17787 whole entry): as the sequence (P17787 whole entry) above
T5 sequence (P32297 whole entry): as the sequence (P32297 whole entry) above
The target in assay [12] is T1, Neuronal acetylcholine receptor; alpha3/beta4. The experiment in a line: Inhibitory concentration against Nicotinic acetylcholine receptor alpha3-beta4; Range is 0.3-1.5 nM. In kind it is protein-complex assay.
Assay [13] addresses T2, Neuronal acetylcholine receptor subunit alpha-7. The experiment in a line: Inhibitory concentration against Nicotinic acetylcholine receptor alpha7; Range is 0.3-1.5 nM.
The target in assay [14] is Neuronal acetylcholine receptor; alpha4/beta4 (Homo sapiens, UniProt P30926+P43681). Kind of assay: Inhibitory concentration against Nicotinic acetylcholine receptor alpha4-beta4; Range is 0.3-1.5 nM. In kind it is protein-complex assay.
In assay [15] the target is T2, Neuronal acetylcholine receptor subunit alpha-7. The experiment in a line: Inhibitory concentration against Nicotinic acetylcholine receptor alpha 7.
Assay [16] addresses T4, Neuronal acetylcholine receptor; alpha4/beta2. The experiment in a line: Inhibitory concentration against Nicotinic acetylcholine receptor alpha4-beta2. In kind it is protein-complex assay.
Assay [17] has as its target T5, Neuronal acetylcholine receptor; alpha3/beta2. Kind of assay: Inhibitory concentration against Nicotinic acetylcholine receptor alpha3-beta2. In kind it is protein-complex assay.
The target of assay [18] is T3, Neuronal acetylcholine receptor; alpha2/beta2. The experiment in a line: Inhibitory concentration against Nicotinic acetylcholine receptor alpha2-beta2. It counts as protein-complex assay.

Peptide text beside a SMILES is read from it.

T3 sequence (P17787 whole entry): as the sequence (P17787 whole entry) above
T3 sequence (Q15822 whole entry): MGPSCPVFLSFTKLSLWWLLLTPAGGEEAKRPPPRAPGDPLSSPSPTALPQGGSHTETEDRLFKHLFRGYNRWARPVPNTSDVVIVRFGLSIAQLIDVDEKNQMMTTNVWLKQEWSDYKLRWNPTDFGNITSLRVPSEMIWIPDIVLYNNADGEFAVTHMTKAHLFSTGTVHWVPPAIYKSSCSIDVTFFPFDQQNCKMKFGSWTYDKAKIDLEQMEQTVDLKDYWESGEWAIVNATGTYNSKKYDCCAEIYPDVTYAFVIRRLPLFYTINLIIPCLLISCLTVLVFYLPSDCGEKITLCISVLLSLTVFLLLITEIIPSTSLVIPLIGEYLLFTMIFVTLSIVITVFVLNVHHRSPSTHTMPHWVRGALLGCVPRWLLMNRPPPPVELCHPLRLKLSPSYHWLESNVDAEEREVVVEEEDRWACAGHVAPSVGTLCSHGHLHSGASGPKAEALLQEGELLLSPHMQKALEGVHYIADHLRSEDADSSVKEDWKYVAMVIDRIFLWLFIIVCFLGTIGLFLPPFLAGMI

As for `CC(C)C[C@H](NC(=O)[C@@H](NC(=O)[C@H](C)NC(=O)[C@H](CS)NC(=O)[C@@H]1CCCN1C(=O)[C@@H]1CCCN1C(=O)[C@@H](NC(=O)[C@H](CO)NC(=O)[C@H](CS)NC(=O)[C@H](CS)NC(=O)CN)[C@@H](C)O)C(C)C)C(=O)N[C@@H](Cc1ccc(O)cc1)C(=O)N[C@@H](CS)C(=O)NCC(=O)N[C@@H](CCCN=C(N)N)C(=O)N[C@@H](CCCN=C(N)N)C(=O)N[C@H](C=O)CCCN=C(N)N` (H-GCCSTPPCAVLYCGRRR-aldehyde), the IC50 in assay [1] and in assay [2] was 1.5 nM in each case.

Take `CC[C@H](C)[C@H](NC(=O)[C@H](CCC(N)=O)NC(=O)[C@@H]1CCCN1C(=O)[C@H](CC(N)=O)NC(=O)[C@H](Cc1cnc[nH]1)NC(=O)[C@@H](NC(=O)[C@@H](NC(=O)[C@H](CS)NC(=O)[C@@H](NC(=O)[C@@H]1CCCN1C(=O)[C@H](CC(N)=O)NC(=O)[C@H](CO)NC(=O)[C@H](CS)NC(=O)[C@H](CS)NC(=O)[C@@H]1CCCN1C(=O)[C@@H](N)CC(=O)O)C(C)C)[C@@H](C)O)C(C)C)C(=O)N[C@@H](CS)C(N)=O` (H-DPCCSNPVCTVHNPQIC-NH2): the half-maximal inhibitory concentration (IC50) in assay [3] and in assay [4] was 1 nM each time.

For the molecule `C[C@H](NC(=O)[C@H](CS)NC(=O)[C@H](CCCN=C(N)N)NC(=O)[C@@H]1CCCN1C(=O)[C@H](CC(=O)O)NC(=O)[C@H](CO)NC(=O)[C@H](CS)NC(=O)[C@H](CS)NC(=O)CN)C(=O)N[C@@H](Cc1c[nH]c2ccccc12)C(=O)N[C@@H](CCCN=C(N)N)C(N)=O` (H-GCCSDPRCAWR-NH2), the IC50 in assay [5], in assay [6] and in assay [7] was 200 nM in each case.

For the molecule `CC(C)C[C@H](NC(=O)[C@@H](NC(=O)[C@H](C)NC(=O)[C@H](CS)NC(=O)[C@@H]1CCCN1C(=O)[C@@H]1CCCN1C(=O)[C@@H](NC(=O)[C@H](CO)NC(=O)[C@H](CS)NC(=O)[C@H](CS)NC(=O)CN)[C@@H](C)O)C(C)C)C(=O)N[C@@H](Cc1ccc(O)cc1)C(=O)N[C@@H](CS)C(=O)NCC(=O)N[C@@H](CCCNC(=N)N)C(=O)N[C@@H](CCCNC(=N)N)C(=O)N[C@H](C=O)CCCNC(=N)N` (H-GCCSTPPCAVLYCGRRR-aldehyde), the IC50 in assay [8], in assay [9], in assay [10], in [11], in assay [12] and in assay [13] was 1.5 nM in each case. The same molecule came in with a 50% inhibitory concentration (IC50) in assay [14] of 1.5 nM.

Regarding `CC(C)C[C@H](NC(=O)[C@H](CO)NC(=O)[C@H](CS)NC(=O)[C@H](CS)NC(=O)CN)C(=O)N1CCC[C@H]1C(=O)N1CCC[C@H]1C(=O)N[C@@H](CS)C(=O)N[C@@H](C)C(=O)N[C@@H](C)C(=O)N[C@@H](CC(N)=O)C(=O)N[C@@H](CC(N)=O)C(=O)N1CCC[C@H]1C(=O)N[C@@H](CC(=O)O)C(=O)N[C@@H](Cc1ccc(O)cc1)C(=O)N[C@@H](CS)C(N)=O` (H-GCCSLPPCAANNPDYC-NH2), the concentration for half-maximal inhibition (IC50) in [15], in [16], in [17] and in assay [18] was 9.6 nM throughout.
